Measurements published in patent publication US20250213519A1, “SYNERGY FOR INCREASING INSULIN SENSITIVITY” (Board of Supervisors of Louisiana State University and …, priority 2022, published 2025).
Converted amounts (≈) assume the structure as drawn. Read-outs that look alike come from different tables or passages of the source.

Columns and labels:
[1] = molecular target: GLP-1R (Homo sapiens, UniProt P43220); details: cited from earlier work
[2] = cited from earlier work; for solubility in an acidic solution: acetic acid buffered
[3] = test system: cytochrome P450 and drug efflux pumps like P-glycoprotein; details: enhances availability of co-administered tamoxifen and losartan in rats; cited from earlier work
[4] = 0.12% myricetin in high fat and sucrose diet; cited from earlier work
[5] = test system: human adipocytes; test: Protein levels by Western blotting in human adipocytes treated for seven days; type: cell-based; details: for PGC-1α protein, myricetin added to NRBC: 50 nM myricetin + NRBC, compared to NRBC
[6] = cited from earlier work
[7] = test system: PPARg P-serine 273; test: Immunoblot of PPARg phosphorylation at serine 273; type: cell-based, human; details: 50 nM myricetin + 8 μM NR + 2 μM BC, 7 days
Protocol: Phosphorylation of PPARg by CDK5 at serine-273 is an important mechanism for inhibition of target genes for insulin sensitivity^7. Inhibitors of CDK5 have potential as diabetes drugs^8. Several studies have provided that myricetin is a CDK5 inhibitor and has insulin sensitizing characteristics that make it a potential therapeutic for diabetes^9,10. We previously analyzed NRBC for effects on PPARg phosphorylation at serine 273. Human adipocytes were treated with 8 μM NR and 2 μM BC for three, five and seven days, and protein was isolated and analyzed on immunoblots probed with an antibody specific for human P-serine 273 PPARg. The same blot was stripped and re-probed with an antibody for total human PPARg. Values in the histogram represent (P-ser 273 PPARg)/(total PPARg). […] The effect increases over time.
The experiment for analysis of phosphorylation of PPARg at P-273 was repeated to determine whether adding myricetin to NRBC can further inhibit PPARg P-273 phosphorylation. Cells were treated for seven days with 8 μM NR, 2 μM BC and 50 nM myricetin. Protein was analyzed on immunoblots probed with the same antibodies.

[8] = single dose injection; cited from earlier work
[9] = 25° C.; cited from earlier work
[10] = molecular target: CDK5 (Homo sapiens, UniProt Q00535); details: cited from earlier work
[11] = test system: human adipocytes; test: Protein levels by Western blotting in human adipocytes treated for seven days; type: cell-based; details: for SIRT3 protein levels, NR combined with myricetin: 8 μM NR + 50 nM myricetin vs NR or myr alone
Description: Since we saw an increase in SIRT3 mRNA and myricetin upregulates SIRT3 protein in adipocytes from mice, we analyzed levels of SIRT3 protein in human adipocytes treated for seven days with the same concentrations of compounds. Protein was isolated from adipocytes and analyzed on immunoblots probed with antibodies that specifically bind human SIRT3 or human β-actin. […] However, adding myr to NR+BC boosted SIRT3 protein by 37%.
Human adipose-derived stem cells from overweight and obese female donors were purchased from LaCell, LLC (New Orleans, Louisiana) or isolated from lipoaspirate waste donated post-surgery from women with obesity using methods as previously described (31). Cells were seeded, maintained until two days after becoming confluent, and differentiated into adipocytes in the presence of rosiglitazone and isobutylmethylxanthine for five days as previously described (25). Treatments of adipocytes with 8 μM NR and 2 μM carotenoid, dissolved in DMSO at 1000×, started 5 days after the differentiation period and lasted for seven days in adipocyte maintenance medium with heat inactivated serum, before RNA and protein were isolated from adipocyte cultures.
Whole cell protein was isolated from differentiated cell cultures after treatment for seven days, lysed with RIPA buffer containing protease and phosphatase inhibitors, and pushed through a 20-gauge needle four times to disrupt organelles. Fifty micrograms of total cell protein were loaded per lane and resolved in 7.5% SDS-PAGE gels, transferred to nitrocellulose membranes, and probed overnight at 4° C. with specific primary antibodies. Anti-rabbit or -mouse secondary antibodies conjugated to horseradish peroxidase were used for detection of target proteins. Image J was used to quantify protein bands on Western blots. To adjust for variations in total protein loaded in each lane, β-actin was used.

[12] = test system: primary islets; details: up to 100 μm, 24 h; cited from earlier work
[13] = rats orally administered 50 mg/kg and 100 mg/kg

CDK5, sequence (Q00535 whole entry, species assumed): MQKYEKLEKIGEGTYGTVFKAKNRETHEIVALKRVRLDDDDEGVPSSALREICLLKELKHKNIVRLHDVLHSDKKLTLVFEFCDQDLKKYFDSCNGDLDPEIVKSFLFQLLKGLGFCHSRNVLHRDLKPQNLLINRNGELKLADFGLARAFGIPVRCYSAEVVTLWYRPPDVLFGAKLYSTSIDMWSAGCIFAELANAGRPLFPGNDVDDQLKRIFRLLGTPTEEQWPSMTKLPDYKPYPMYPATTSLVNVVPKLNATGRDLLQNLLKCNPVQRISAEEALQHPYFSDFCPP
CDK5, sequence (Q15078 whole entry partner, species assumed): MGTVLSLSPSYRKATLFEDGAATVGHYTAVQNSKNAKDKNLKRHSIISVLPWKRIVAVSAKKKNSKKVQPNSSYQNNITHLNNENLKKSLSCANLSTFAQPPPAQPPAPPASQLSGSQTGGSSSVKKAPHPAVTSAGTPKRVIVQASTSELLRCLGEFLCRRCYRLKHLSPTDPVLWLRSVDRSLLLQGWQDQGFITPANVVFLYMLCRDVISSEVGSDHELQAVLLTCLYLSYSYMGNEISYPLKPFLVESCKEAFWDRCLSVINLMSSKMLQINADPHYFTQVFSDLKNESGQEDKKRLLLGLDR
GLP-1R, sequence (P43220 24-463, species assumed): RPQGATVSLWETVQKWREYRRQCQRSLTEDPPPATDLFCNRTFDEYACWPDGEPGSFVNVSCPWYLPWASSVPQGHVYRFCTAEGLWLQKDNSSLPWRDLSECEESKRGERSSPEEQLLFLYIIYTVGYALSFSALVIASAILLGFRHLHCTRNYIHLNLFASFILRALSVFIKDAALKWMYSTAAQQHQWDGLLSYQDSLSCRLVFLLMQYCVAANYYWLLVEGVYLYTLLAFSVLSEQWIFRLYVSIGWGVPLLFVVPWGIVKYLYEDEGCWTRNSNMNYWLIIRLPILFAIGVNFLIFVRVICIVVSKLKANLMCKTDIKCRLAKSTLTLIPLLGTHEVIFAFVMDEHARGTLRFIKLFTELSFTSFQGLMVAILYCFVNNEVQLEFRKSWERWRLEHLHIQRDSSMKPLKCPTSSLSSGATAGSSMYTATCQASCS

Structure (SMILES): O=c1c(O)c(-c2cc(O)c(O)c(O)c2)oc2cc(O)cc(O)c12 [myricetin]
- GLP-1R agonist activity [1]: activity as a GLP-1R agonist at low micromolar concentrations
- solubility in an acidic solution ([2]; pH 1): 777 µg/mL (≈ 2440 µM)
- solubility in an acidic solution ([2]; pH 2): 576 µg/mL (≈ 1810 µM)
- solubility in an acidic solution ([2]; pH 3): 150 µg/mL (≈ 471 µM)
- aqueous solubility ([2]; aqueous): 17 µg/mL (≈ 53.4 µM)
- inhibition of cytochrome P450 and efflux pumps [3]: inhibits cytochrome P450 and drug efflux pumps like P-glycoprotein
- adiposity, circulating glucose and insulin [4]: reductions in adiposity, and circulating glucose and insulin
- PGC-1α protein, myricetin added to NR ([5]; 50 nM myricetin + 8 μM NR): small increase
- PGC-1α protein, myricetin added to NRBC [5]: two-fold higher
- PGC-1α protein, myricetin added to NRBC ([5]; listed as Myricetin): over two-fold
- PGC-1α protein levels ([5]; 50 nM myricetin, 7 days): robustly upregulated
- AUC0-∞ ([6]; rat, i.v., 0.5 mg/kg): 1452.85 ± 170.30 ng·h/mL
- CL ([6]; rat, i.v., 0.5 mg/kg): 5.83 ± 0.83 mL/min/kg
- Cmax ([6]; rat, i.v., 0.5 mg/kg): 2232.16 ± 856.36 ng/mL
- Tmax ([6]; rat, i.v., 0.5 mg/kg): 0 (pre-dose) h
- Vd ([6]; rat, i.v., 0.5 mg/kg): 4.12 ± 1.52 L/kg
- t1/2 ([6]; rat, i.v., 0.5 mg/kg): 6.99 ± 1.94 h
- AUC0-∞ ([6]; rat, p.o., 50 mg/kg): 13,731.13 ± 5,574.58 ng · h/mL
- Bioavailability ([6]; rat, p.o., 50 mg/kg): 9.62%
- Cmax ([6]; rat, p.o., 50 mg/kg): 1488.75 ± 200.78 ng/mL
- Tmax ([6]; rat, p.o., 50 mg/kg): 6.4 ± 0.89 h
- t1/2 ([6]; rat, p.o., 50 mg/kg): 2.78 ± 0.81 h
- AUC0-∞ ([6]; rat, p.o., 100 mg/kg): 28,081.62 ± 10,982.45 ng · h/mL
- Bioavailability ([6]; rat, p.o., 100 mg/kg): 9.74%
- Cmax ([6]; rat, p.o., 100 mg/kg): 2611.76 ± 1019.58 ng/mL
- Tmax ([6]; rat, p.o., 100 mg/kg): 5.2 ± 3.03 h
- t1/2 ([6]; rat, p.o., 100 mg/kg): 3.79 ± 0.75 h
- oral bioavailability [6, 13]: approximately 10%
- time to maximal concentration (Tmax) [6, 13]: 6.5 h
- PPARg P-273 phosphorylation, myricetin added to NRBC [7]: did not further decrease PPARg P-273 relative to NRBC
- PPARg P-273 phosphorylation, myricetin added to NRBC ([7]; listed as Myricetin): did not alter phosphorylation of PPARg at serine-273
- blood glucose levels [8]: maintained reduced blood glucose levels for eight hours
- stability half-life [9]: 23 h
- CDK5 kinase activity inhibition EC50 (in words) [10]: low micromolar range
- EC50 ([10]; read-out: CDK5 inhibition EC50): 71 µM
- SIRT3 protein levels, NR combined with myricetin [11]: does not increase SIRT3 protein levels
- SIRT3 protein levels, NR combined with myricetin ([11]; listed as Myricetin): did not increase SIRT3 protein levels
- SIRT3 protein levels, single agent ([11]; 8 μM NR or 50 nM myricetin, 7 days): upregulate SIRT3 protein levels
- increase in SIRT3 protein ([11]; myr added to NR+BC): 37%
- increase in SIRT3 mRNA and protein ([11]; myr added to NRBC (summary)): two-fold
- viability of primary islets [12]: no loss of viability
